According to patent US7868135B2, “Compositions of lipopeptide antibiotic derivatives and methods of use thereof” (priority 2003, dated 2011):
Where two headings read alike, the source gives them in different places.

Experiments:
[1] = tested on: Staphylococcus aureus (MSSA)
In short: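 Broth microdilution MIC per NCCLS M7-A6 with doubling serial dilutions, in cation-adjusted Mueller-Hinton broth supplemented with 0.625 mM calcium.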

[2] = tested on: Streptococcus pyogenes SPY0001 (PenS); assay: Broad spectrum MIC, Table 17/18 column M; type: cell-based; conditions: condition M of Table 17, in µg/mL
Experimental: (§1) The antimicrobial lipopeptide derivatives described herein were tested for antimicrobial activity against Gram-positive bacteria as follows. The minimum inhibitory concentrations (MIC) of the antimicrobial lipopeptide derivatives of the invention were determined using NCCLS guidelines M7-A6 (2003) with a slight modification in that doubling serial dilutions were used to dilute the test compounds. The broth phase microdilution method was used. Isolated colonies of Staphylococcus aureus (MSSA) from an 18-24 hour blood agar plate cultures were used to inoculate cation adjusted Mueller-Hinton broth (CAMHB) supplemented with 0.625 mM calcium. […] A negative control containing media alone and a positive growth control containing bacteria with media alone were also included. MICs were determined after incubating the plates at about 37° C. for 24 hours. […] In Tables 1 to 16, R is the core cyclic peptide of amphomycin or aspartocin, which can be in the form of a β-isomer, an anhydro, a dianhydro, or any combination thereof. […] Furthermore, a person of skill in the art will appreciate that all the pounds, or groups of compounds, derived from the various combinations of and substituents shown in Tables 1 to 16, are disclosed by the present the same extent as if each compound or group of compounds was set forth individually.
(§2) Antimicrobial lipopeptide derivatives of the instant invention were tested for antimicrobial activity against Gram-positive bacteria in a variety of media conditions. The […] (MIC) of the antimicrobial lipopeptide derivatives were determined as described in Example 376. The various media used are described in Table 17.

[3] = tested on: Staphylococcus aureus SAU0017 (MSSA); assay: Broad spectrum MIC, Table 17/18 columns E, F (+ 0.625 mM calcium; + calcium and 30% bovine serum); type: cell-based; conditions: in µg/mL; for MIC, media condition E: condition E: + 0.625 mM calcium; for MIC, media condition F: condition F: + calcium and 30% bovine serum
Experimental: as §1, §2

[4] = tested on: Enterococcus faecium EFM0101 (VRE, MDR); assay: Broad spectrum MIC, Table 17/18 column A; type: cell-based; conditions: condition A of Table 17, in µg/mL
Experimental: as §1, §2

[5] = tested on: Staphylococcus epidermidis SEP0375 (MRSE); assay: Broad spectrum MIC, Table 17/18 column I; type: cell-based; conditions: condition I of Table 17, in µg/mL
Experimental: as §1, §2

[6] = tested on: Staphylococcus aureus SAU0065 (MRSA); assay: Broad spectrum MIC, Table 17/18 column H; type: cell-based; conditions: condition H of Table 17, in µg/mL
Experimental: as §1, §2

[7] = tested on: Streptococcus pneumoniae SPN0023 (PRSP); assay: Broad spectrum MIC, Table 17/18 column K; type: cell-based; conditions: condition K of Table 17, in µg/mL
Experimental: as §1, §2

[8] = tested on: Staphylococcus aureus SAU0031 (VISA); assay: Broad spectrum MIC, Table 17/18 column G; type: cell-based; conditions: condition G of Table 17, in µg/mL
Experimental: as §1, §2

[9] = tested on: Streptococcus pneumoniae SPN0002 (PISP); assay: Broad spectrum MIC, Table 17/18 column J; type: cell-based; conditions: condition J of Table 17, in µg/mL
Experimental: as §1, §2

[10] = tested on: Streptococcus pneumoniae SPN0032 (PSSP); assay: Broad spectrum MIC, Table 17/18 column L; type: cell-based; conditions: condition L of Table 17, in µg/mL
Experimental: as §1, §2

[11] = tested on: Enterococcus faecalis EFS0004 (VSE); assay: Broad spectrum MIC, Table 17/18 B, C, D (CAMHB; + 0.625 mM calcium; + calcium and 30% bovine serum); type: cell-based; conditions: in µg/mL; for MIC, media condition B: condition B: CAMHB; for MIC, media condition C: condition C: + 0.625 mM calcium; for MIC, media condition D: condition D: + calcium and 30% bovine serum
Experimental: as §1, §2

Row | SMILES | MIC ([1]; 24 h) | MIC, media condition M [2] | MIC, media condition E [3] | MIC, media condition F [3] | MIC, media condition A [4] | MIC, media condition I [5] | MIC, media condition H [6] | MIC, media condition K [7] | MIC, media condition G [8] | MIC, media condition J [9] | MIC, media condition L [10] | MIC, media condition B [11] | MIC, media condition C [11] | MIC, media condition D [11] | MIC ([1]; S. aureus (MSSA), CAMHB supplemented with 0.625 mM calcium, 24 hours at about 37° C., a range = compound tested multiple times)
1 | CCCCCCCCCCCCOc1ccc(C(=O)NC(CC(=O)O)C(=O)NC2C(=O)N3CCCCC3C(=O)NC(C(C)C(=O)O)C(=O)NC(CC(=O)O)C(=O)NCC(=O)NC(CC(=O)O)C(=O)NCC(=O)NC(C(C)N)C(=O)NC(C(C)C)C(=O)N3CCCC3C(=O)NC2C)cc1 (stereo not drawn) [Compound 15, CH3—(CH2)11—O-p-Ph-C(═O)-Amphomycin] | 2 to 4 µg/mL | 0.5-2 | 2-4 | 32 | 2-4 | 2-4 | 2-8 | 0.125-0.5 | 4-8 | 0.125-1 | 0.25-1 | 2-4 | 1-4 | >64 | 
2 | CCCCCCCCCCCCCCC(=O)NC(CC(=O)O)C(=O)NC1C(=O)N2CCCCC2C(=O)NC(C(C)C(=O)O)C(=O)NC(CC(=O)O)C(=O)NCC(=O)NC(CC(=O)O)C(=O)NCC(=O)NC(C(C)NC(=O)[C@H]2CCCN2)C(=O)NC(C(C)C)C(=O)N2CCCC2C(=O)NC1C (stereo partly drawn) [Compound 67, C15-Amphomycin-9-(D-Pro)] | 1 to 2 µg/mL | 0.5-1 | 1-2 | 8-16 | 2 | 2 | 2 | 0.5 | 8 | 0.5 | 0.5 | 2-4 | 2 | 64 | 
3 | CCCCCCCCCCCCNC(=O)NC(CC(=O)O)C(=O)NC1C(=O)N2CCCCC2C(=O)NC(C(C)C(=O)O)C(=O)NC(CC(=O)O)C(=O)NCC(=O)NC(CC(=O)O)C(=O)NCC(=O)NC(C(C)NC(=O)CN)C(=O)NC(C(C)C)C(=O)N2CCCC2C(=O)NC1C (stereo not drawn) [Compound 92, CH3—(CH2)11—NH—C(═O)-Amphomycin-9-Gly] | 0.25 to 0.5 µg/mL | 0.25 | 0.25-0.5 | 8 | 1-2 | 0.5-1 | 1-2 | 0.125 | 4 | 0.25 | 0.25 | 6-16 | 2-4 | 64 | 
4 | CCCCCCCCCCCCNC(=O)NC(CC(=O)O)C(=O)NC1C(=O)N2CCCCC2C(=O)NC(C(C)C(=O)O)C(=O)NC(CC(=O)O)C(=O)NCC(=O)NC(CC(=O)O)C(=O)NCC(=O)NC(C(C)NC(=O)CNC)C(=O)NC(C(C)C)C(=O)N2CCCC2C(=O)NC1C (stereo not drawn) [Compound 98, CH3—(CH2)11—NH—C(═O)-Amphomycin-9-Sar] | 0.5 µg/mL | 0.5 | 0.5 | 16 | 2 | 1 | 1 | 0.25 | 4 | 0.125 | 0.5 | 32 | 4 | >64 | 
5 | CCCCCCCCCCCCNC(=O)NC(CC(=O)O)C(=O)NC1C(=O)N2CCCCC2C(=O)NC(C(C)C(=O)O)C(=O)NC(CC(=O)O)C(=O)NCC(=O)NC(CC(=O)O)C(=O)NCC(=O)NC(C(C)N)C(=O)NC(C(C)C)C(=O)N2CCCC2C(=O)NC1C (stereo not drawn) [Compound 251, CH3—(CH2)11—NH—C(═O)-Amphomycin] | 2 µg/mL | 2 | 2 | 8 | 4 | 2 | 2 | 1 | 4 | 0.5 | 1 | 8 | 4 | 32 | 

Further lines, results first:

Row | MIC ([1]; 24 h) | MIC, media condition M [2] | MIC, media condition E [3] | MIC, media condition F [3] | MIC, media condition A [4] | MIC, media condition I [5] | MIC, media condition H [6] | MIC, media condition K [7] | MIC, media condition G [8] | MIC, media condition J [9] | MIC, media condition L [10] | MIC, media condition B [11] | MIC, media condition C [11] | MIC, media condition D [11] | MIC ([1]; S. aureus (MSSA), CAMHB supplemented with 0.625 mM calcium, 24 hours at about 37° C., a range = compound tested multiple times) | SMILES
6 | 1 µg/mL | 1 | 1 | 32 | 4 | 4 | 2 | 1 | 8 | 1 | 2 | 8 | 4 | >64 |  | CCCCCCCCCCCCCCC(=O)NC(CC(=O)O)C(=O)NC1C(=O)N2CCCCC2C(=O)NC(C(C)C(=O)O)C(=O)NC(CC(=O)O)C(=O)NCC(=O)NC(CC(=O)O)C(=O)NCC(=O)NC(C(C)NC(=O)CNC(=O)[C@@H](C)N)C(=O)NC(C(C)C)C(=O)N2CCCC2C(=O)NC1C (stereo partly drawn) [Compound 69, C15-Amphomycin-9-Gly-(D-Ala)]
7 |  | 0.25-0.5 | 0.5-1 | 16-32 | 0.5-1 | 1-2 | 2 | 0.125 | 8 | 0.125 | 0.25 | 0.5-1 | 0.5-1 | 64 | 80/0.5-1 μg/mL | CCCCCCCCCCCCCCCCC(=O)NC(CC(=O)O)C(=O)NC1C(=O)N2CCCCC2C(=O)NC(C(C)C(=O)O)C(=O)NC(CC(=O)O)C(=O)NCC(=O)NC(CC(=O)O)C(=O)NCC(=O)NC(C(C)NC(=O)CCN)C(=O)NC(C(C)C)C(=O)N2CCCC2C(=O)NC1C (stereo not drawn) [Compound 80, C17-Amphomycin-9-(β-Ala)]
8 | 0.25 µg/mL | 0.5 | 0.25 | 16 | 2 | 1 | 1 | 0.25 | 4 | 0.125 | 0.125 | 64 | 4 | 64 |  | CCCCCCCCCCCCNC(=O)NC(CC(=O)O)C(=O)NC1C(=O)N2CCCCC2C(=O)NC(C(C)C(=O)O)C(=O)NC(CC(=O)O)C(=O)NCC(=O)NC(CC(=O)O)C(=O)NCC(=O)NC(C(C)NC(=O)CCN)C(=O)NC(C(C)C)C(=O)N2CCCC2C(=O)NC1C (stereo not drawn) [Compound 97, CH3—(CH2)11—NH—C(═O)-Amphomycin-9-(β-Ala)]
9 | 4 µg/mL | 2 | 4 | >64 | 8 | 4 | 4 | 0.25 | 16 | 0.5 | 2 | 16 | 8 | >64 |  | CCCCCCCCCCCCCCC(=O)NC(CC(=O)O)C(=O)NC1C(=O)N2CCCCC2C(=O)NC(C(C)C(=O)O)C(=O)NC(CC(=O)O)C(=O)NCC(=O)NC(CC(=O)O)C(=O)NCC(=O)NC(C(C)NC(=O)[C@@H]2CCCN2)C(=O)NC(C(C)C)C(=O)N2CCCC2C(=O)NC1C (stereo partly drawn) [Compound 160, C15-Amphomycin-9-Pro]
